From patent publication US9034866B2 (Genentech, Inc., priority 2012, dated 2015)
Read-outs that look alike come from different tables or passages of the source.

Target: nuclear factor-kappa B (NF-kB)-inducing kinase (NIK) (Homo sapiens (Human), UniProt Q99558)
Test: NIK Enzyme Inhibition Assay (Transcreener ADP fluorescence polarization)
Assay type: biochemical
Conditions: read-out: NIK ADP-FP (Ki uM)
How it was run: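 Baculovirus/insect-cell-expressed NIK (0.2-1 nM) incubated with compounds 1-3.5 h at 10 uM ATP. Buffer: 50 mM HEPES pH 7.2, 10 mM MgCl2, 2 mM DTT, 1% DMSO. ADP detected by Transcreener fluorescence polarization (ADP antibody, AlexaFluor 633 tracer) after EDTA quench.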

[1] = purified NIK 0.2-1 nM, 10 uM ATP, Morrison's quadratic equation

nuclear factor-kappa B (NF-kB)-inducing kinase (NIK), sequence (Q99558 whole entry): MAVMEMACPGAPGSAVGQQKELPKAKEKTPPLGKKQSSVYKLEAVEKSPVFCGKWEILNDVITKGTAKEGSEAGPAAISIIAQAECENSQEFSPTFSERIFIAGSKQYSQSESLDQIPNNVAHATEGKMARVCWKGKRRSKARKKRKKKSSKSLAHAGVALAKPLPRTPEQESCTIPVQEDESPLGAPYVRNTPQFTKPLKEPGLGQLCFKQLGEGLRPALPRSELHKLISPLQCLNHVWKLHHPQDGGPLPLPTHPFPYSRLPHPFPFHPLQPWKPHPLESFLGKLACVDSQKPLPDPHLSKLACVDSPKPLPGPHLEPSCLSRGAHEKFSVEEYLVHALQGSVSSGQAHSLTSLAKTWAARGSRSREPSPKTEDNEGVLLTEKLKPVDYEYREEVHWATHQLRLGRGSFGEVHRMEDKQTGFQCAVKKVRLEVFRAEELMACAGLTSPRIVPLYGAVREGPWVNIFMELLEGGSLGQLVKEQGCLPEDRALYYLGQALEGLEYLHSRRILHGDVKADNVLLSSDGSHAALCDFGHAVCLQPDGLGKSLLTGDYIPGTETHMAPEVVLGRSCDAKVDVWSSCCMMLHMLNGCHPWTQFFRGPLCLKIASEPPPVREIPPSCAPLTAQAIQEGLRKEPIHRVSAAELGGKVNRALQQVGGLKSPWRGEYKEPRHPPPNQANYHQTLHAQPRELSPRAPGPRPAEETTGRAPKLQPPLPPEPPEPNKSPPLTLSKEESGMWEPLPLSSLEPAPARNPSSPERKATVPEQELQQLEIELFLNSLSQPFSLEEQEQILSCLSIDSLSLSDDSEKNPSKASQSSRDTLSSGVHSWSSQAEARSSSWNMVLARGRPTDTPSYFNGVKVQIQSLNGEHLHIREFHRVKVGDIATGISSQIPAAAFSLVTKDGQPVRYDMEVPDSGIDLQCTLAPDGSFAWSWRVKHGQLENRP

Structure (SMILES) | Ki [1] [µM] | Ki [µM]
CC(O)(C#Cc1cc2c(cc1F)OCCn1cc(C(N)=O)nc1-2)C(=O)N1CC(C#N)C1 (centres unmarked) [Example 95] | 0.304 | –
CN1CCN(Cc2c(C(N)=O)nc3n2C2CC(C2)c2cc(F)c(C#CC(C)(C)O)cc2-3)CC1 (racemic) | 0.12 | –
Cc1cc([C@](C)(O)C#Cc2ccc3c(c2)-n2nc(C(N)=O)cc2C(F)(F)CO3)no1 [Example 674, (R)-4,4-difluoro-9-(3-hydroxy-3-(5-methylisoxazol-3-yl)but-1-yn-1-yl)-4,5-dihydrobenzo[b]pyrazolo[1,5-d][1,4]oxazepine-2-carboxamide] | – | 0.0011
CC(C)(O)C#Cc1cc2c(cc1Cl)OCCn1cc(C(N)=O)nc1-2 (racemic) [Example 186] | > 5 | –
CC(O)(C#Cc1cc2c(cc1F)OCCn1cc(C(N)=O)nc1-2)C(=O)N1CC(F)(F)C1 (racemic) [Example 156] | 0.155 | –
Cn1nccc1Cc1c(C(N)=O)nc2n1C1CC(C1)c1ccc(C#C[C@@](C)(O)c3ncccn3)cc1-2 | 0.0013 | –
Cn1cc(C(O)c2c(C(N)=O)nc3n2CCOc2cc(F)c(C#CC(C)(C)O)cc2-3)cn1 (centres unmarked) | 0.082 | –
NC(=O)c1cn2c(n1)-c1cc(C#CC3(O)CC(CO)C3)c(F)cc1OCC2 (centres unmarked) [Example 76] | 2.3 | –
CC(C)(O)C#Cc1cc2c(cc1F)C1CC(C1)n1c-2nc(C(N)=O)c1CN1CCOCC1 | 0.021 | –
CC(C)(O)C#Cc1cc2c(cc1F)C1CC(C1)c1c-2nc(C(N)=O)n1Cc1ccccc1Cl | 0.0036 | –
CC(O)(C#Cc1cc2c(cc1F)OCCn1cc(C(N)=O)nc1-2)c1ccc(F)cn1 (centres unmarked) [Example 101, 8-fluoro-9-[3-(5-fluoro-pyridin-2-yl)-3-hydroxy-but-1-ynyl]-4,5-dihydro-6-oxa-1,3a-diaza-benzo[e]azulene-2-carboxy-lic acid amide] | 3.5 | –
CC(C)(O)C#Cc1cc2c(cc1F)C1CC(C1)c1[nH]c(C(N)=O)nc1-2 (racemic) | 0.00068 | –
Cc1cc(C(C)(O)C#Cc2cc3c(cc2Cl)OCCn2cc(C(N)=O)nc2-3)no1 (racemic) | > 5 | –
CC(O)(C#Cc1ccc2c(c1)-n1nc(C(N)=O)cc1CCO2)C1CCCO1 (centres unmarked) [Example 696] | 1 | –
Cc1cc([C@](C)(O)C#Cc2cc3c(cc2C)OCCn2cc(C(N)=O)nc2-3)no1 [Example 38, 9-[(R)-3-hydroxy-3-(5-methyl-isoxazol-3-yl)-but-1-ynyl]-8-methyl-4,5-dihydro-6-oxa-1,3a-diaza-benzo[e]azulene-2-car-boxylic acid amide] | 0.062 | –
CN1CC[C@](O)(C#Cc2ccc3c(c2)-c2nc(C(N)=O)cn2C2CC3C2)C1=O | > 1.2 | –
CN1CC[C@@](O)(C#Cc2ccc3c(c2)-n2nc(C(N)=O)cc2C2(COC2)CO3)C1=O [Example 714, (R)-9-((3-hydroxy-1-methyl-2-oxopyrro-lidin-3-yl)ethynyl)-5H-spiro[ben-zo[b]pyrazolo[1,5-d][1,4]oxazepine-4,3′-oxetane]-2-carboxamide] | 0.0033 | –
CN1CC[C@](O)(C#Cc2ccc3c(c2)-c2nc(C(N)=O)c(C4CN(C(=O)C5CC5)C4)n2C2CC3C2)C1=O (racemic) | > 1.2 | –
CC(C)NCc1c(C(N)=O)nc2n1CCOc1ccc(C#CC(C)(C)O)cc1-2 | 0.0042 | –
CC(C)(O)C#Cc1cc2c(cc1F)OCCn1c-2nc(C(N)=O)c1C(=O)NC1CN2CCC1CC2 (racemic) | 0.453 | –
CN(C)C1COc2cc(F)c(C#CC(C)(C)O)cc2-c2nc(C(N)=O)sc21 (racemic) | > 5 | –
Cn1cnc(C(C)(O)C#Cc2cc3c(cc2F)OCCc2sc(C(N)=O)nc2-3)c1 (centres unmarked) | > 5 | –
CN1CC[C@](O)(C#Cc2cc3c(cc2F)C2CC(C2)n2c-3nc(C(N)=O)c2C(C)(C)O)C1=O [Example 325, 9-fluoro-3-(1-hydroxy-1-methyl-ethyl)-10-[2-[(3S)-3-hydroxy-1-methyl-2-oxo-pyrrolidin-3-yl]ethynyl]-5,6,7,12-tetra-hydro-5,7-methanobenzo[c]imidazo-[1,2-a]azepine-2-carboxamide] | > 1.2 | –
CC(C)N(C)Cc1c(C(N)=O)nc2n1C1CC(C1)c1cc(F)c(C#CC(C)(C)O)cc1-2 [Example 223] | 0.16 | –
CC(O)(C#Cc1cc2c(cc1F)OCCn1cc(C(N)=O)nc1-2)c1nc(CC#N)cs1 (racemic) [Example 77] | 1.2 | –

Structure (SMILES) | Ki [1] [µM] | Ki [µM]
CC(O)(C#Cc1cc2c(cc1F)OCCn1cc(C(N)=O)nc1-2)c1cncnc1 (centres unmarked) [Example 14, 8-Fluoro-9-(3-hydroxy-3-pyrimidin-5-yl-but-1-ynyl)-4,5-dihydro-6-oxa-1,3a-diaza-benzo[e]azulene-2-carboxylic acid amide] | 0.864 | –
CC(C)(O)C#Cc1ccc2c(c1)-c1nc(C(N)=O)sc1C(NC1CCC1)CO2 (centres unmarked) [Example 22, 4-cyclobutylamino-9-(3-hydroxy-3-meth-yl-but-1-ynyl)-4,5-dihydro-6-oxa-3-thia-1-aza-benzo[e]azulene-2-carboxylic acid amide] | 0.97 | –
Cc1nc(C(C)(O)C#Cc2cc3c(cc2F)OCCn2cc(C(N)=O)nc2-3)n[nH]1 (centres unmarked) | 3.9 | –
COCC(C)(O)C#Cc1ccc2c(c1)-c1nc(C(N)=O)cn1C1CC2C1 (centres unmarked) | 0.0097 | –
CC(C)(O)C#Cc1ccc2c(c1)-c1nc(C(N)=O)sc1C(C)(O)CO2 (centres unmarked) [Example 21, 4-hydroxy-9-(3-hydroxy-3-methyl-but-1-ynyl)-4-methyl-4,5-dihydro-6-oxa-3-thia-1-aza-benzo[e]azulene-2-carboxylic acid amide] | 0.094 | –
CC(C)(O)C#Cc1cc2c(cc1F)C1CC(C1)n1c-2nc(C(N)=O)c1-c1nc(-c2cccnc2)n[nH]1 (racemic) [Example 207] | 0.00077 | –
Cc1cc([C@](C)(O)C#Cc2ccc3c(c2)-c2nc(C(N)=O)c(C(=O)NCc4cccc(F)c4)n2CCO3)no1 [Example 713, (R)-N3-(3-fluorobenzyl)-10-(3-hydroxy-3-(5-methylisoxazol-3-yl)but-1-yn-1-yl)-5,6-dihydrobenzo[f]imidazo[1,2-d][1,4]oxazepine-2,3-dicarboxamide] | > 1.2 | –
CC(C)(O)C#Cc1cc2c(cc1F)C1CC(C1)n1c-2nc(C(N)=O)c1CNC(=O)C(C)(C)C [Example 365, 3-[(2,2-dimethylpropanoylamino)meth-yl]-9-fluoro-10-(3-hydroxy-3-methyl-but-1-ynyl)-5,6,7,12-tetrahydro-5,7-meth-anobenzo[c]imidazo[1,2-a]azepine-2-carb-oxamide] | 0.017 | –
CC(O)(C#Cc1cc2c(cc1F)OCCn1c-2nc(C(N)=O)c1C1CC1)CO (centres unmarked) | 0.098 | –
CC(O)(C#Cc1cc2c(cc1F)OCCn1cc(C(N)=O)nc1-2)c1ncc[nH]1 (racemic) | 0.083 | –
CC(O)(C#Cc1ccc2c(c1)-c1nc(C(N)=O)cn1CCO2)CO (centres unmarked) [Example 20] | 0.771 | –
CC(C)(O)C#Cc1ccc2c(c1)-c1nc(C(N)=O)c(Cn3ncc4cccnc43)n1CCO2 | 0.2 | –
Cc1cc([C@](C)(O)C#Cc2ccc3c(c2)-c2nc(C(N)=O)cn2CC(CN2CCOCC2)O3)no1 (stereo partly drawn) [Example 597, 10-((R)-3-hydroxy-3-(5-methylisoxazol-3-yl)but-1-yn-1-yl)-6-(morpholinometh-yl)-5,6-dihydrobenzo[f]imidazo[1,2-d][1,4]oxazepine-2-carboxamide] | 0.28 | –
CN1CCC(CNC(=O)c2c(C(N)=O)nc3n2CCOc2cc(F)c(C#CC(C)(C)O)cc2-3)C1 (racemic) [Example 68] | 0.879 | –
Cn1ccnc1C(C)(O)C#Cc1cc2c(cc1F)OCCn1cc(C(N)=O)nc1-2 (centres unmarked) | 0.239 | –
CC(O)(C#Cc1cc2c(cc1F)OCCn1cc(C(N)=O)nc1-2)c1cc(CO)on1 (centres unmarked) [Example 32, 8-fluoro-9-[3-hydroxy-3-(5-hydroxymeth-yl-isoxazol-3-yl)-but-1-ynyl]-4,5-dihy-dro-6-oxa-1,3a-diaza-benzo[c]azulene-2-carboxylic acid amide] | 0.002 | –
Cc1cc([C@](C)(O)C#Cc2ccc3c(c2)-c2nc(C(N)=O)c(C(=O)NCc4cccnc4)n2CCO3)no1 [Example 581, (R)-10-(3-hydroxy-3-(5-methylisoxazol-3-yl)but-1-yn-1-yl)-N3-(pyridin-3-ylmeth-yl)-5,6-dihydrobenzo[f]imidazo[1,2-d][1,4]oxazepine-2,3-dicarboxamide] | 0.001 | –
CC(C)(C#Cc1ccc2c(c1)-c1nc(C(N)=O)cn1CCO2)CO [Example 171] | > 5 | –
CN1CC[C@@](O)(C#Cc2ccc3c(c2)-n2nc(C(N)=O)c(CO)c2CCO3)C1=O [Example 720, (R)-9-((3-hydroxy-1-methyl-2-oxopyrro-lidin-3-yl)ethynyl)-3-(hydroxymethyl)-4,5-dihydrobenzo[b]pyrazolo[1,5-d][1,4]oxazepine-2-carboxamide] | 0.001 | –
CC(C)(O)C#Cc1cc2c(cc1F)OCCn1c-2nc(C(N)=O)c1C(=O)NC(C)(C)C#N (racemic) [Example 61] | 0.105 | –
CC(O)(C#Cc1cc2c(cc1F)OCCc1sc(C(N)=O)nc1-2)CF (centres unmarked) [Example 117, 8-fluoro-9-(4-fluoro-3-hydroxy-3-meth-yl-but-1-ynyl)-4,5-dihydro-6-oxa-3-thia-1-aza-benzo[e]azulene-2-carboxylic acid amide] | 0.005 | –
CC(C)(O)C#Cc1ccc2c(c1)-c1nc(C(N)=O)cn1CCO2 [Example 2, 9-(3-hydroxy-3-methyl-but-1-ynyl)-4,5-dihydro-6-oxa-1,3a-diaza-benzo[e]azu-lene-2-carboxylic acid amide] | 0.319 | –
CNC(=O)c1c(C(N)=O)nc2n1CCOc1cc(F)c(C#C[C@@](C)(O)c3noc(C)n3)cc1-2 [Example 97, 8-fluoro-9-[(R)-3-hydroxy-3-(5-methyl-[1,2,4]oxadiazol-3-yl)-but-1-ynyl]-4,5-dihydro-6-oxa-1,3a-diaza-ben-zo[e]azulene-2,3-dicarboxylic acid 2-amide 3-methylamide] | 0.007 | –
CC(=O)N1CCN(Cc2c(C(N)=O)nc3n2C2CC(C2)c2cc(F)c(C#CC(C)(C)O)cc2-3)CC1 (racemic) | 0.026 | –
Cn1cc([C@@H](O)c2c(C(N)=O)nc3n2CCOc2cc(F)c(C#CC(C)(C)O)cc2-3)cn1 | 0.033 | –
